In patent US20250296960A1, “PEPTIDE COMPOSITIONS AND METHODS OF USE THEREOF” (priority 2022, published 2025):
Entries after “also recorded” stand apart in the source; their conditions may differ. Like-named read-outs stand apart in the source and are kept apart here. Numbered stars: 1 amine (or outer) side, 2 acyl side, 3 side chain; on linkers, the order of the positions; unused ones are H or OH. Square brackets hold non-standard residues; d marks the D form. Side chains are listed from the residue outwards. Peptide text beside a SMILES is read from it. * marks the point of attachment. C18 diacid = O=C(O)CCCCCCCCCCCCCCCCC(=O)*; γGlu = O=C(O)[C@H](CCC(=O)[*:2])N[*:1]; αMeR = C[C@](N)(CCCNC(=N)N)C(=O)O; AEEA = NCCOCCOCC(=O)O; Aib = CC(C)(N)C(=O)O

Tests used:
[1] = In vivo efficacy in mAMLN (obese and NASH) mice, 4 weeks; conditions: after 4 weeks
[2] = target: T1, human GLP-1R (Homo sapiens, UniProt P43220); assay: cAMP assay (HitHunter cAMP) in GLP-1R-expressing CHO-K1 cells (GLP-1R+ cells); assay type: cell-based; conditions: for activity on GLP-1R compared to SEQ ID NO. 77, in words: Example 13; for Ratio vs. GLP-1R, GLP-1R / Relative % to native ligand, GLP-1R: Table 36
T1 construct: host or cells: CHO-K1
Method in brief: (§1)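 Luminescent cAMP read-out: after 30 min peptide stimulation at 37 °C in cAMP assay buffer, receptor-expressing CHO-K1 cells (seeded 7×10^3/well the night before) received antibody and detection reagents for 1 h, then Solution A for 3 h, at room temperature in the dark.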

[3] = assay type: in vitro ADME; conditions: pH 7.8
Procedure: (§2) For the stability against trypsin, the test samples were prepared by mixing stock solutions of peptide and trypsin dissolved in 50 mM PBS (pH 7.8) containing 0.02% PS80 in a weight ratio of 10:1. The test samples were incubated at 37° C. for 180 min. The sampling from test samples was proceeded at the predetermined time points (10, 30, 60, 90, 120, and 180 min) and stopped by 10% TFA solution.
(§3) Analytical HPLC was performed to determine the remaining amount on an ACQUITY Premier system (Waters, USA) with an ACQUITY CSH C18 column (Waters, USA) at 35° C. using 0.1% TFA in water and acetonitrile. The remaining amount was determined as a percentage of the peak area at the sampling time point relative to the peak area of the initial sample.

[4] = system: trypsin; assay type: in vitro ADME
Procedure: as §2, §3

[5] = target: T2, human GCGR (Homo sapiens, UniProt P47871); assay: cAMP assay (HitHunter cAMP) in GCGR-expressing CHO-K1 cells (GCGR+ cells); assay type: cell-based; conditions: Table 36
T2 construct: host or cells: CHO-K1
Method in brief: as §1

[6] = target: T3, human GIPR (Homo sapiens, UniProt P48546); assay: cAMP assay (HitHunter cAMP) in GIPR-expressing CHO-K1 cells (GIPR+ cells); assay type: cell-based; conditions: for activity on GIPR compared to SEQ ID NO. 77, in words: Example 13; for Ratio vs. GLP-1R, GIPR / Relative % to native ligand, GIPR: Table 36
T3 construct: host or cells: CHO-K1
T3 sequence (P48546 22-466): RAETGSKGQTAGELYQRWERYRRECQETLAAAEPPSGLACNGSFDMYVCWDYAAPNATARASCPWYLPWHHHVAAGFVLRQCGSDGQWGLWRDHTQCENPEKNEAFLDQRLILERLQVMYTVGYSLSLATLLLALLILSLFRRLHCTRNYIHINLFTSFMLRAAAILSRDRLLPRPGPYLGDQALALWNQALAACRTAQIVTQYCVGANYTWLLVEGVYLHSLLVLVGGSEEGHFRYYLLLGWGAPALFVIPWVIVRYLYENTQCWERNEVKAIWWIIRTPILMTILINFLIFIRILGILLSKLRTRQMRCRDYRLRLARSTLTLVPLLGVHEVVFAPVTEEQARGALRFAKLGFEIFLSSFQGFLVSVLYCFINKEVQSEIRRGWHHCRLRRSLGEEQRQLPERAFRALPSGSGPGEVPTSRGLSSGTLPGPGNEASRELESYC
Method in brief: as §1

[7] = In vivo efficacy in CDA-HFD (NASH) mice, 4 weeks; conditions: Example 16
Procedure: This study was conducted to evaluate the efficacy of SEQ ID NOs. […] SEQ ID NOs. The peptides were delivered at 0.02% PS80 in PBS and dosing volume was 10 mL/kg. Control group was administered by vehicle without peptide.
Body weight changes were monitored Q2D; serum chemistry (end); hepatic TG (end); and histological analysis (end). […]

[8] = In vitro enzymatic stability against FaSSIF/P (pancreatin in FaSSIF, pH 6.5); assay type: in vitro ADME; conditions: simulated gi fluid, pH 6.5, Half-life (min), FaSSIF/P
[9] = system: FaSSIF/P; assay: as above; assay type: in vitro ADME
[10] = target: human glucose-dependent insulinotropic polypeptide receptor (GIPR), expressed on CHO-K1 cells (human) (UniProt P48546); assay: cell-based or functional assay
[11] = target: human glucose-dependent insulinotropic polypeptide receptor (GIPR), expressed on CHO-K1 cells (human) (UniProt P48546); assay: cell-based or functional assay; remark: listed apart in the source

T1 sequence (P43220 24-463): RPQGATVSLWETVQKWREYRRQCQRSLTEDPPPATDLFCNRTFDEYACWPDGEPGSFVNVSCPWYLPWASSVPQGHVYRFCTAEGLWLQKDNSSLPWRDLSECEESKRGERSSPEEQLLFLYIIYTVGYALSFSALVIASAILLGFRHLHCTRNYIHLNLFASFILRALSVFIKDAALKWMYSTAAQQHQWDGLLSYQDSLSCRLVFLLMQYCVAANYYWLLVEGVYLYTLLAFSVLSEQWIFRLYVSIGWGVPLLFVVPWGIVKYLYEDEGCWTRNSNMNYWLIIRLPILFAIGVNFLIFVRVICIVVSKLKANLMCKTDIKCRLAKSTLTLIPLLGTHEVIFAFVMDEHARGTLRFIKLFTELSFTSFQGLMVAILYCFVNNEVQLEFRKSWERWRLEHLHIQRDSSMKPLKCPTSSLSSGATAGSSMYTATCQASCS
T2 sequence (P47871 26-477): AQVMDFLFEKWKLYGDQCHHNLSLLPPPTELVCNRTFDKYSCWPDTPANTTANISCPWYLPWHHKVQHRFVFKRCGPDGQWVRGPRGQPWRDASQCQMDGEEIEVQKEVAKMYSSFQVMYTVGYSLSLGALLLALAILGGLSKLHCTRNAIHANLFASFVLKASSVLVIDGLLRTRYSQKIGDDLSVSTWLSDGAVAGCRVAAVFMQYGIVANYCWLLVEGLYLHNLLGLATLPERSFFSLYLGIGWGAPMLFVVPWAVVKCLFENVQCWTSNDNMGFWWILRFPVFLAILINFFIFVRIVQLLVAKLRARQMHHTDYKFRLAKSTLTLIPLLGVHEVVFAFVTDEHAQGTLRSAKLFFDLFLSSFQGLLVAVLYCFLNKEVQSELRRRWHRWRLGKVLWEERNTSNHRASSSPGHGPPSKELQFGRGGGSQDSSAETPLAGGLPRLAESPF

Compound	activity on GLP-1R compared to SEQ ID NO. 77, in words [2]	Ratio vs. GLP-1R, GLP-1R [2]	Relative % to native ligand, GLP-1R [2] [%]	half-life [3] [h]	stability against trypsin compared with SEQ ID NO. 77, in words [4]	Ratio vs. GLP-1R, GCGR [5]	Relative % to native ligand, GCGR [5] [%]	activity on GIPR compared to SEQ ID NO. 77, in words [6]	Ratio vs. GLP-1R, GIPR [6]	Relative % to native ligand, GIPR [6] [%]	half-life [8] [h]	also measured
CSCC[C@H](NC(=O)[C@H](Cc1ccc(O)cc1)NC(=O)[C@H](CC(=O)O)NC(=O)[C@H](CC(C)C)NC(=O)[C@H](CC(C)C)NC(=O)[C@H](CCCCNC(=O)COCCOCCNC(=O)COCCOCCNC(=O)CC[C@H](NC(=O)CCCCCCCCCCCCCCCCC(=O)O)C(=O)O)NC(=O)[C@H](CO)NC(=O)[C@H](Cc1ccc(O)cc1)NC(=O)[C@H](CC(=O)O)NC(=O)[C@H](CO)NC(=O)[C@@H](NC(=O)[C@H](Cc1ccccc1)NC(=O)[C@@H](NC(=O)CNC(=O)[C@H](CCC(N)=O)NC(=O)C(C)(C)NC(=O)[C@@H](N)Cc1ccc(O)cc1)[C@@H](C)O)[C@@H](C)O)C(=O)N[C@@H](CCSC)C(=O)N[C@@H](CCC(N)=O)C(=O)N[C@@](C)(CCCNC(=N)N)C(=O)N[C@@H](CC(=O)O)C(=O)N[C@@H](Cc1ccccc1)C(=O)N[C@H](C(=O)N[C@@H](CCC(N)=O)C(=O)N[C@@H](Cc1c[nH]c2ccccc12)C(=O)N[C@@H](CC(C)C)C(=O)N[C@@H](CC(C)C)C(=O)N[C@@H](CCC(=O)O)C(=O)NCC(=O)NCC(=O)N1CCC[C@H]1C(=O)N[C@@H](CO)C(=O)N[C@@H](CO)C(=O)NCC(=O)N[C@@H](C)C(=O)N1CCC[C@H]1C(=O)N1CCC[C@H]1C(=O)N1CCC[C@H]1C(=O)N[C@@H](CO)C(N)=O)C(C)C [compound 101] (H-Y[Aib]QGTFTSDYSK([AEEA-AEEA-γGlu-C18 diacid])LLDYMMQ[αMeR]DFVQWLLEGGPSSGAPPPS-NH2; N-terminus assumed)	increased	100	722	> 7.23	improved stability	12	89	increased	65	472	1.18	NAS score, in words [1]: statistically decreased more than the level of tirzepatide; hepatic steatosis (histological score), in words [1]: significantly reduced; liver weight, visceral fat weight, liver enzymes, and liver steatosis compared to vehicle-treated control, in words [1]: significantly reduced; efficacy in the NASH model, in words [7]: most excellent efficacy; hepatic steatosis score compared to CDA-HFD control, in words [7]: significantly reduced; scores of hepatocytes inflammation and NAS score, in words [7]: statistically reduced; also recorded: most decreased; body weight compared to vehicle-treated control, in words ([7]; 20 nmol/kg s.c. Q2D, 4 weeks): reduce body weight; also recorded: greatest weight loss; liver enzymes and liver steatosis compared to vehicle-treated control, in words ([7]; end of treatment): reduce liver enzymes and liver steatosis significantly; stability against FaSSIF/P compared with SEQ ID NO. 77, in words [9]: improved stability
CSCC[C@H](NC(=O)[C@H](Cc1ccc(O)cc1)NC(=O)[C@H](CC(=O)O)NC(=O)[C@H](CC(C)C)NC(=O)[C@H](CC(C)C)NC(=O)[C@H](CCCCNC(=O)COCCOCCNC(=O)COCCOCCNC(=O)CC[C@H](NC(=O)CCCCCCCCCCCCCCCCC(=O)O)C(=O)O)NC(=O)[C@H](CO)NC(=O)[C@H](Cc1ccc(O)cc1)NC(=O)[C@H](CC(=O)O)NC(=O)[C@H](CO)NC(=O)[C@@H](NC(=O)[C@H](Cc1ccccc1)NC(=O)[C@@H](NC(=O)CNC(=O)[C@H](CCC(N)=O)NC(=O)C(C)(C)NC(=O)[C@@H](N)Cc1ccc(O)cc1)[C@@H](C)O)[C@@H](C)O)C(=O)N[C@@H](CCSC)C(=O)N[C@@H](CCC(N)=O)C(=O)N[C@@H](CCC(N)=O)C(=O)N[C@@H](CC(=O)O)C(=O)N[C@@H](Cc1ccccc1)C(=O)N[C@H](C(=O)N[C@@H](CCC(N)=O)C(=O)N[C@@H](Cc1c[nH]c2ccccc12)C(=O)N[C@@H](CC(C)C)C(=O)N[C@@H](CC(C)C)C(=O)N[C@@H](CCC(=O)O)C(=O)NCC(=O)NCC(=O)N1CCC[C@H]1C(=O)N[C@@H](CO)C(=O)N[C@@H](CO)C(=O)NCC(=O)N[C@@H](C)C(=O)N1CCC[C@H]1C(=O)N1CCC[C@H]1C(=O)N1CCC[C@H]1C(=O)N[C@@H](CO)C(N)=O)C(C)C [compound 100] (H-Y[Aib]QGTFTSDYSK([AEEA-AEEA-γGlu-C18 diacid])LLDYMMQQDFVQWLLEGGPSSGAPPPS-NH2; N-terminus assumed)	decreased	100	54	> 7.23	increased half-lives	56	30	decreased	103	55	0.753	
GIP (native ligand) (from UniProt P09681 52-93)												EC50 (nM), cAMP assay [10]: 0.732 nM; EC50, c-AMP release (FIG. 8C) [10]: 0.24 nM; EC50, c-AMP release (FIG. 9C) [10]: 0.24 nM; EC50, cAMP release (FIG. 7C) [10]: 1.78 nM; Percentage change in EC50 relative to GIP at human GIPR (%) [10]: 100%; EC50 (nM), cAMP assay [11]: 2.03 nM
